Results on 5 compounds are retold here after patent US8124361B2, “Methods of screening for sweet taste modulators” (Givaudan SA, priority 2006, dated 2012).

The target of assay [1] is T1, hCaSR (Homo sapiens, UniProt P41180).
T1 construct: full length cDNAs encoding the human CaSR (commercially available from Origene Inc., USA); host or cells: HEK293T cells stably expressing Galpha16gust44
T1 sequence (P41180 20-1078): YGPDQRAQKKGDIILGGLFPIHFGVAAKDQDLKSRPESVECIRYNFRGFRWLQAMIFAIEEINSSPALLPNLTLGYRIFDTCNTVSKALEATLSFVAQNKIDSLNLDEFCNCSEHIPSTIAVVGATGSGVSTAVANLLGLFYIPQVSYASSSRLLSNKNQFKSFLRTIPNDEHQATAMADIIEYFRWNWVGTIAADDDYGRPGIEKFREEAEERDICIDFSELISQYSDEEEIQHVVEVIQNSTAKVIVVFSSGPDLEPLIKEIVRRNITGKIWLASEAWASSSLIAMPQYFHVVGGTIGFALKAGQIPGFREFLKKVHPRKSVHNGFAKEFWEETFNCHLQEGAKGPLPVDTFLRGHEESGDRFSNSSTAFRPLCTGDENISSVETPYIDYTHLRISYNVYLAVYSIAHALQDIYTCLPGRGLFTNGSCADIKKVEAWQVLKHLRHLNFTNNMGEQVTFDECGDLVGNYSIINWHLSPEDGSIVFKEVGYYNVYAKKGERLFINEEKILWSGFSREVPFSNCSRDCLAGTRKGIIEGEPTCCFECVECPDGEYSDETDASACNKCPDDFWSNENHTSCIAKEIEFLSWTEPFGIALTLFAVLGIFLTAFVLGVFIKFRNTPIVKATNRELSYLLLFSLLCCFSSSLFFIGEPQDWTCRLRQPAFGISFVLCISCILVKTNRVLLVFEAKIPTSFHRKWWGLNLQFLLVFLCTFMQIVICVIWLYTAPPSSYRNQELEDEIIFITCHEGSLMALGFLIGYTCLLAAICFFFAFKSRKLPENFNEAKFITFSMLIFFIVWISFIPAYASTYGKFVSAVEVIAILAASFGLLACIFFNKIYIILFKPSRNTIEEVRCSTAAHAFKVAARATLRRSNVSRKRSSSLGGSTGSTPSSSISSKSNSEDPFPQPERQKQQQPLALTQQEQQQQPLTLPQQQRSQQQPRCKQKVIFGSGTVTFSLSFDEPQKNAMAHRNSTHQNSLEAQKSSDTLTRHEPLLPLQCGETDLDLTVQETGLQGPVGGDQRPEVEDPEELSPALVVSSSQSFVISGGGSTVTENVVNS
Put plainly: Fluo-4 calcium assay in cells transfected with hCaSR. Format: cell-based. Conditions: transient transfection; calcium chloride 2 mM, sucralose 0.5 mM, aspartame 0.85 mM, perillartine 50 μM, cinnamonitrile 100 μM, cyclamate 1 mM, NDHC 0.33 mM; six replicates.

In assay [2] the test system is HEK293T/Gα16gust44 cells. Description: Fluo-4 calcium assay, negative control cells expressing Gα16gust44 only (mock transfected). Format: cell-based, human. Particulars: for Neg. control (mock transfection) AVG: calcium chloride 2 mM, sucralose 0.5 mM, aspartame 0.85 mM, perillartine 50 μM, cinnamonitrile 100 μM, cyclamate 1 mM, NDHC 0.33 mM, six replicates.
For assay [3], the target named is T2, transmembrane domains of TAS1R (Homo sapiens, UniProt Q7RTX0+Q8TE23, C757R).
T2 sequence (Q8TE23 20-839): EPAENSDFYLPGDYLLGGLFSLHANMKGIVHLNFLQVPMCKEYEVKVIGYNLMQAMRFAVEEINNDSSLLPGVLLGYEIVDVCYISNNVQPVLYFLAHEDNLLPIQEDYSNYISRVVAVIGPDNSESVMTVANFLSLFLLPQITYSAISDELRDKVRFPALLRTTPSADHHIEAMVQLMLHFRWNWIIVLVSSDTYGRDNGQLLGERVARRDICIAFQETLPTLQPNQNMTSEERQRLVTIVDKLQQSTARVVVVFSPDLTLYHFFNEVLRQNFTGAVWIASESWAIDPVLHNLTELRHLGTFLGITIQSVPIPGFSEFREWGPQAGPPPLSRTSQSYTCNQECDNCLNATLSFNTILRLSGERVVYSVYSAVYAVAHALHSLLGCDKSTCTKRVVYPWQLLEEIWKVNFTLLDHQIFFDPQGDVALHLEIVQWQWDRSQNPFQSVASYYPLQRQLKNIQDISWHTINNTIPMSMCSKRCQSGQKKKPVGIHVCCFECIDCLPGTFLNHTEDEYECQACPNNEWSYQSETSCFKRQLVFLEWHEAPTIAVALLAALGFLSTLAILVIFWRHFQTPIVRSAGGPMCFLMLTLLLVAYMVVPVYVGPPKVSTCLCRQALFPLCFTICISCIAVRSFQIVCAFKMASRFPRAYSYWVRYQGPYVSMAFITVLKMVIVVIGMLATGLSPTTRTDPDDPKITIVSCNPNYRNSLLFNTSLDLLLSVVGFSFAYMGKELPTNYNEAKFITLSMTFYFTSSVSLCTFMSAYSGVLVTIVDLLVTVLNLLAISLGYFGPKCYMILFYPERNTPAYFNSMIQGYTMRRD
T2 sequence (Q7RTX0 21-852 C757R): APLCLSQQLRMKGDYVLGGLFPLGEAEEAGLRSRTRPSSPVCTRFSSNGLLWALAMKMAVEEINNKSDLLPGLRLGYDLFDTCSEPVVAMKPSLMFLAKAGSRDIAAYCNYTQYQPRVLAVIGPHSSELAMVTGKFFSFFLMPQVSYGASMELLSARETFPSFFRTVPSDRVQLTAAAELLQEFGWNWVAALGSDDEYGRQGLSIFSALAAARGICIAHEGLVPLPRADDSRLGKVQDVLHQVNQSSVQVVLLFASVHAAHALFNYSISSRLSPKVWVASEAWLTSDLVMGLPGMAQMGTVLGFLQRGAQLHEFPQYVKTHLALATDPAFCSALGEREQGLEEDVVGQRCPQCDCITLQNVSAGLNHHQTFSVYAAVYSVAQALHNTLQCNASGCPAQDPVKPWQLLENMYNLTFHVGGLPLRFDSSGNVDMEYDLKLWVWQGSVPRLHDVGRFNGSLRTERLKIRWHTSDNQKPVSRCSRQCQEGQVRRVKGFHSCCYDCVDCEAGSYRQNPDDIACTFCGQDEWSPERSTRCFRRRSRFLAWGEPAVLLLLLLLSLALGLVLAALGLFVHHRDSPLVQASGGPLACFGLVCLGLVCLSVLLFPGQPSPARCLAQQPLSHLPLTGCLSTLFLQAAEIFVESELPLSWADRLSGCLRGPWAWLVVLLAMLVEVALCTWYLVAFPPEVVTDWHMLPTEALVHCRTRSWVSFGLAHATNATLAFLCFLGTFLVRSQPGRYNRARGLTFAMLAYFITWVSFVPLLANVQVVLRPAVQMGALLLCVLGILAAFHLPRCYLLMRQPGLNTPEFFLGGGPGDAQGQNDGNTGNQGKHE
Description: Identification of candidate sweetness enhancers that bind to the transmembrane domains. Format: binding. Conditions: identified by the applicants as candidate sweetness enhancers.

The target in assay [4] is T3, T1R2-TMD (Homo sapiens, UniProt Q8TE23).
T3 sequence (Q8TE23 564-839): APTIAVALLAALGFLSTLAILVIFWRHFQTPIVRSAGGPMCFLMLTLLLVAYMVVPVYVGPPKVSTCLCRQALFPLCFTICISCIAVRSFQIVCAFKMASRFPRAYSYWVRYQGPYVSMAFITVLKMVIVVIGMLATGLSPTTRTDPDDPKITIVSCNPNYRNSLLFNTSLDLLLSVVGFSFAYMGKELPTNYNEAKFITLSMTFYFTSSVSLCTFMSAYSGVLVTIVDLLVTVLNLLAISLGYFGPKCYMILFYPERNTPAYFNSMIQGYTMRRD

Assay [5] relates to sweet sensitive panelists. Description: Ranking test of sweetness isointensity (R-index), sensory panel. Format: in vivo, human. The procedure: (§1) The sensory evaluation was conducted using a ranking method. Samples at ambient temperature were randomly presented in 15 ml blind aliquots (unidentifiable by panelists). Panels consisted of 10 sweet sensitive subjects and samples were presented in 3 replications over 1 session. After tasting each sample, the mouth was rinsed thoroughly with water at ambient temperature prior to tasting the next sample. […] They were asked to rank the samples from low to high with respect to perceived sweet taste.
as §1, with “taste. […] From ranking-style sensory tests, a matrix of responses (see table X below) is constructed such that each cell contains the number of times a given sample was ranked at a particular location.” for “taste.”
Essentially, the R-index is a measure of difference between two samples. The R-index has a chance level of detection of 50%. […] The critical value is the statistically relevant value that the derived R-index must deviate from (i.e greater or less than) in order to be considered significant.

The subject of assay [6] is sweet sensitive panelists. Put plainly: Forced choice test of sweetness versus sucrose, sensory panel. Format: in vivo, human. Conditions: 1% sucrose, comparison with 60 ppm swingle extract; highest imaginable sweetness rates as 10. As for the experimental part:
A forced choice sensory evaluation of […] extract as a sweetener was performed as described in example 13 (see also for forced choice method, O'Mahony, 1992, J. Sens. Stud., 7:1-47), subject to the following modifications: […]

The mark [7] stands for this setting: 0.5% sucrose in 1700 ppm cyclamate vs 1700 ppm cyclamate.
Setting [8] is: 0.5% sucrose in 1700 ppm cyclamate vs 1900 ppm cyclamate.
Where [9] appears, read: 0.5% sucrose in 1700 ppm cyclamate vs 2100 ppm cyclamate.
[10] abbreviates: 0.5% sucrose in 1700 ppm cyclamate vs 2300 ppm cyclamate.
[11] abbreviates: 0.5% sucrose in 1700 ppm cyclamate vs 2500 ppm cyclamate.
Setting [12] is: 0.5% sucrose in aqueous 600 ppm p-ethoxybenzaldehyde vs 600 ppm p-ethoxybenzaldehyde.
The mark [13] stands for this setting: 0.5% sucrose in aqueous 600 ppm p-ethoxybenzaldehyde vs 700 ppm p-ethoxybenzaldehyde.

Consider `[Ca+2].[Cl-].[Cl-]` [Calcium, calcium chloride], for which the “hCaSR AVG” value in assay [1] amounted to 7610 RFU. Moreover, the “Neg. control (mock transfection) AVG” value in assay [2] is 1570 RFU.

Turning to `OC[C@H]1O[C@H](O[C@]2(CCl)O[C@H](CCl)[C@@H](O)[C@@H]2O)[C@H](O)[C@@H](O)[C@H]1Cl` [Sucralose, 6-dichloro-1,6-dideoxy-β-D-fructo-furanosyl 4-chloro-4-deoxy-α-D-galactopyranoside], the “hCaSR AVG” value in assay [1] came to 22 RFU. Further, the “Neg. control (mock transfection) AVG” value in assay [2] is −186 RFU.

On to `N#CC=Cc1ccccc1` [cinnamonitrile], for which the “binding to the transmembrane domains of TAS1R” value in assay [3] is recorded as “bind to the transmembrane domains of TAS1R”. Also, the “hCaSR AVG” value in assay [1] was 197 RFU. Besides, the “Neg. control (mock transfection) AVG” value in assay [2] is −998 RFU.

In the case of `C=C(C)[C@@H]1CC=C(/C=N/O)CC1` [perillartine], in assay [4] (50 μM perillartine), the “AVERAGE fluorescence increase, T1R2-TMD/Gα16gust44” value is 973.06 RFU. Besides, the “increase in fluorescence compared to the signal of the negative control” value in assay [4] (perillartine, many cell clones, vs cells expressing Gα16gust44 but not T1R2-TMD) was “greater than 10 times”. In assay [3], the “binding to the transmembrane domains of TAS1R” value is given as “bind to the transmembrane domains of TAS1R”. In addition, the “hCaSR AVG” value in assay [1] came out at 73 RFU. The “AVERAGE fluorescence increase, Gα16gust44 ONLY (neg. control)” value in assay [2] (50 μM perillartine) came out at 73.78 RFU. Also, the “Neg. control (mock transfection) AVG” value in assay [2] is listed as −379 RFU.

Take `OC[C@H]1O[C@@](CO)(O[C@H]2O[C@H](CO)[C@@H](O)[C@H](O)[C@H]2O)[C@@H](O)[C@@H]1O` [sucrose, α-D-glucopyranosyl-(1→2)-β-D-fructofaranose]: the “cyclamate equivalent in sweetness added” value in assay [5] (0.5% sucrose in 1700 ppm cyclamate) came to 200 ppm cyclamate. Further, the R-index in assay [5] (setting [7]) turned out to be 85%; in assay [5] (setting [8]), 60%; in assay [5] (setting [9]), 21%; in assay [5] (setting [10]), 7%; in assay [5] (setting [11]), 4%; in assay [5] (setting [12]), 68%. In assay [5] (setting [13]), this compound had a R-index of 59%. In addition, the sucrose sample sweetness result is recorded as “sweeter” in assay [5] (setting [7]); “isosweet” in assay [5] (setting [8]); “less sweet” in assay [5] (setting [9]); “less sweet” in assay [5] (setting [10]); “less sweet” in assay [5] (setting [11]). For the same compound, the p-ethoxybenzaldehyde isointensity in assay [5] (0.5% sucrose in aqueous 600 ppm p-ethoxybenzaldehyde) worked out at 700 ppm p-ethoxybenzaldehyde. Also, the mixture sample sweetness entry is given as “sweeter” in assay [5] (setting [12]) and “isosweet” in assay [5] (setting [13]). In addition, the cyclamate isointensity in assay [5] (1700 ppm cyclamate+0.5% sucrose) is 1900 ppm cyclamate. The compound further came in with a sweetness intensity rating in assay [6] of 0.72.
